Publication PMC12005472 (Chemmedchem, 2025)
Like-named read-outs stand apart in the source and are kept apart here.

Tests used:
Asp25 = Asp25 (UniProt position 93, KEALLDTGADD); conditions: cited from earlier work
Endothiapepsin (EP) [1] = test system: Endothiapepsin (EP)
Description: The total proton exchange ( ΔnH^+ ) in a binding event can be determined by ITC measurements in different buffers with distinct heats of ionization ( ΔHionization ), according to the Eq. 1: (1) ΔHobserved=ΔHcorrected+ΔnH^+(ΔHionization)
Integrating the raw thermograms yields the experimentally observed enthalpies ( ΔHobserved ), which can be used for a linear regression with the slope corresponding to ΔnH^+ and the y‐axis intercept corresponding to the buffer‐corrected enthalpy of the binding reaction ( ΔHcorrected ).
Figure 3 Left: Calculation of the heat of ionization. The experimentally observed enthalpies ΔHobs are plotted against the heat of ionization ΔHion of the respective buffers (phosphate: 3.60 kJ mol^−1 ADA: 12.23 kJ mol^−1, HEPES: 20.04 kJ mol^−1, TRIS: 47.45 kJ mol^−1).[14] […] Right: Thermodynamic profiles of complex formation in phosphate, ADA, HEPES and TRIS buffers and the buffer‐corrected thermodynamic profile. For the buffer‐corrected profile, the change in Gibbs free energy ΔG is calculated as the average of ΔG observed in the four buffers, ΔH is obtained as described above, and the entropic contribution − TΔS is calculated from the numerical difference between ΔG and ΔH .
Cacodylate was excluded as a buffering agent due to its toxicity. […] 2.5 % (v/v) DMSO corresponds to a molar concentration of 0.35 M.
Each parameter alone can have a clear effect on the thermodynamic properties.[11] We used the MicroCal PEAQ‐ITC Automated ITC with a cell volume of 200 μL; 25 °C is a standard temperature, where most of the experiments are carried out, not only ITC. We followed standard protocols for protein, ligand, and buffer concentrations.[16]
The dialysis was performed in a 600 mL beaker. The membrane of the cassette was soaked in the dialysis buffer for 2 min by holding it (with gloves) in the beaker filled with dialysis buffer at pH 7.0 (TRIS, ADA, HEPES and phosphate, respectively). After pre‐soaking, the cassette was carefully dried with a paper towel to prevent buffer from entering the cassette, but without touching the membranes. 3 mL of at least 4 mg mL^−1 protein solution was added to the cassette using a 200 μL micropipette. When the cassette was closed with the stopper, any remaining air was gently evacuated from the dialysis chamber. The protein was then dialyzed against 500 mL of dialysis buffer for 2 hours at RT with slow stirring. The buffer was then replaced with 500 mL of fresh buffer and stirred again for 2 hours at RT. After another change of buffer, the dialysate was stored in the refrigerator overnight (12–20 hours). The next day, the protein solution was removed using a syringe with a long cannula. The protein was stored on ice before being shock frozen in liquid nitrogen to determine the concentration using NanoDrop™ 2000c (Thermo Scientific, USA).
ITC measurements were performed using the MicroCal PEAQ‐ITC Automated ITC (Malvern Panalytical, Worcestershire, UK). […] For the reference titration, the same titrant was titrated into the buffer solution. The obtained thermogram peaks of all titrations were integrated and fitted with MicroCal PEAQ‐ITC Analysis Software 1.41.

Endothiapepsin (EP) [2] = conditions: ITC; 80 μM EP, 1200 μM pepA, 20 mM buffer (ACES, Cacodylate, HEPES, Phosphate, TRIS), 16 °C, pH 7.0; ref 12 (Gómez and Freire); cited from earlier work
Endothiapepsin (EP) [3] = conditions: in words; ref not given; cited from earlier work
[4] = test system: HIV-1 protease (HIV-1 PR); parameters: method as in PMID 1883831; conditions: experiment; cited from earlier work

HIV-1 protease (Human immunodeficiency virus 1)
pKa (Asp25): 3.1 | pKa (Asp25; record 2): 5.2

Iva‐Val‐Val‐Sta‐Ala‐Sta [pepA]
proton uptake upon pepA binding to EP, in words (Endothiapepsin (EP) [1]): uptake of more than one mole of protons | total proton exchange ΔnH^+ (proton uptake per binding reaction) (Endothiapepsin (EP) [1]; ITC, slope of ΔHobs vs ΔHionization in phosphate, ADA, HEPES, TRIS, pH 7.0, 25 °C, 50 μM EP, 500 μM pepA, 100 mM buffer, 2.5 % DMSO, 0.1 % Tween20, on average): 1.67±0.12 protons per binding reaction | enthalpic contribution (ΔHobserved) in TRIS (Endothiapepsin (EP) [1]; TRIS buffer 100 mM, pH 7.0, 25 °C, 2.5 % DMSO, 0.1 % Tween20): 7.34 ± 0.693 kcal/mol | overall proton uptake (Endothiapepsin (EP) [1]; pH 7): 1.67±0.12 moles of protons | total proton exchange ΔnH^+ (proton uptake) (Endothiapepsin (EP) [1]; pH 7): 1.67 ± 0.12 mol | buffer-corrected enthalpy of the binding reaction ΔHcorrected (Endothiapepsin (EP) [1]; y-axis intercept of ΔHobs vs ΔHion in phosphate, ADA, HEPES, TRIS, pH 7.0, 25 °C): -12.7 kcal/mol | proton exchange ΔnH^+ previously published (Endothiapepsin (EP) [2]): 1.1±0.1 protons | pH dependence of affinity (Endothiapepsin (EP) [3]): becomes higher at more acidic pH

HIV‐1 PR: HIV-1 protease, an aspartic protease, used to calibrate the Poisson-Boltzmann methodology
pKa of Asp25 [4]: 3.1 | pKa of Asp25’ [4]: 5.2
